Assay results reported in patent US11524962B2, “Substituted pyrrolo[2,3-d]pyrimidines as inhibitors of protein arginine methyl transferase 5 (PRMT5)” (PRELUDE THERAPEUTICS, INCORPORATED, priority 2017, dated 2022).

Tested on: Granta-519 mouse xenograft
Assay: Tumor growth inhibition in Granta-519 mouse xenograft model
Type: in vivo
Description: Granta-519 cells was maintained in DMEM medium supplemented with 10% fetal bovine serum and 2 mM L-Glutamine at 37° C. in an atmosphere of 5% CO2 in air. Cells in exponential growth phase were harvested and 1×10^7 cells in 0.1 mL of PBS with Matrigel (1:1) were injected subcutaneously at the right lower flank region of each mouse for tumor development. The treatments were started when the mean tumor size reaches approximately 300-400 mm^3. […] Example 1 or vehicle (0.5% Na CMC+0.5% Tween80, suspension) were administered orally (BID or QD for Example 1, QD for vehicle) at a dose of 25 mg/kg BID and 50 mg/kg QD for 16 and 20 days, respectively. Body weights and tumor size were measured every 3 to 4 days after randomization. Animals were euthanized 12 hours after last dosing, and blood and tumor samples were collected for analysis.

Work on C[C@@](O)(c1ccc2c(c1)CC2)[C@H]1O[C@@H](n2ccc3c(N)ncnc32)[C@H](O)[C@@H]1O [Example 1, (2R,3R,4S,5S)-2-(4-amino-7H-pyrrolo[2,3-d]pyrimidin-7-yl)-5-((R)-1-(bicyclo[4.2.0]octa-1(6),2,4-trien-3-yl)-1-hydroxyethyl)tetrahydrofuran-3,4-diol] yielded a body weight loss (25 mg/kg BID oral, 16 days) of 6.75%, a tumor growth inhibition (25 mg/kg BID oral, 16 days) of 76.7% and a body weight gain (50 mg/kg QD oral, 20 days) of 10.1%. For the same compound, the tumor growth inhibition (50 mg/kg QD oral, 20 days) was 5.8%.
